This is an account of results in patent US20060100168A1, “Method of treating cancer using adenosine and its analogs” (The Trustee of Boston University, priority 2002, published 2006).

SMILES strings stand for the structures. “Also recorded” adds a separate entry of the source.

The subject of experiment [1] is MCF-7 cells. Kind of experiment: Anchorage-dependent growth assay (viable cell count, Trypan Blue). Type of experiment: cell-based, human. To be noted: MCF-7. The procedure: Anchorage-dependent growth assay: Cells were plated into 6-well plates and grown overnight before treatments. The seeding concentration of MCF-7 cells was 2×10^5/well, which was determined during preliminary experiments as not allowing the cells to reach confluency within 3 days. Cells were treated either with vehicle or ligands, as indicated. Cells were detached by incubation with trypsin (Invitrogen, Carlsbad, Calif.) and counted with a hemacytometer before or after treatment.

The subject of experiment [2] is HeLa cells. Kind of experiment: Anchorage-independent growth (soft agar) assay. To be noted: 100 μM, two weeks. Type of experiment: cell-based, human. The procedure:
(§1) Anchorage-independent growth (soft agar) assay: Soft agar assay was performed as described (40) with the following modifications. Ligands were added into the bottom and top agar before plating into 6-well plates. Cells were treated with trypsin (Invitrogen, Carlsbad, Calif.) for 5 minutes in a 37° C. incubator and pipetted several times so that most cells were in single cell forms. Cells were counted with a hemacytometer (Hausser Scientific/VWR, So. Plainfield, N.J.), and 10,000 cells were mixed with top agar and plated into each well. After the top agar had solidified, two ml of medium containing the same treatment was added on top of the agar. This covering medium was changed every two days during culture. After two weeks of culture, each well was counted for the number of colonies formed on an Olympus IX70 microscope under 40× optical amplification. A cell colony was defined as any cluster of cells that contain more than 3 cells. The average of counts from 3 random optical fields for each well was taken as the colony number and analyzed. Each treatment was performed in triplicates. The averages and standard deviations shown in the figures were calculated based on triplicate experiments.

Experiment [3] concerns Hs578T cells. Kind of experiment: Anchorage-independent growth (soft agar) assay. Type of experiment: cell-based, human. To be noted: 100 μM, two weeks. The procedure:
as §1

Experiment [4] concerns MCF-7 cells. The experiment is described as follows: Anchorage-independent growth (soft agar) assay. Type of experiment: cell-based, human. The method, then:
as §1

Experiment [5] deals with T47D cells. The experiment is described as follows: Anchorage-independent growth (soft agar) assay. Type of experiment: cell-based, human. To be noted: 100 μM, two weeks. The procedure:
as §1

For experiment [6], the system named is ZR-75 cells. The experiment is described as follows: Anchorage-independent growth (soft agar) assay. To be noted: ZR-75 soft agar; 100 μM; two weeks. Type of experiment: cell-based, human. The procedure:
as §1

Experiment [7] deals with T47D cells. Kind of experiment: Anchorage-dependent growth assay. Type of experiment: cell-based, human. To be noted: 100 μM, three days.
For experiment [8], the system named is MCF-7+A3 cells (stably transfected with human A3AR cDNA). Kind of experiment: Soft agar assay with MCF-7 cells stably expressing A3 adenosine receptor. Type of experiment: cell-based. To be noted: MCF-7+A3 pool vs MCF-7. The method, then:
as §1, with “experiments. […] Clones of cells grown up were analyzed for their A3AR expression using RT-PCR.” for “experiments.”

Experiment [9] deals with pS2 mRNA. The experiment is described as follows: Semi-quantitative RT-PCR of pS2 mRNA in MCF-7 cells. Type of experiment: cell-based, human. To be noted: 100 μM, observed after 8 to 12 hours. The method, then: Total RNA preparation and Reverse Transcription Polymerase Chain Reaction (RT-PCR): Total RNA from MCF-7 cells was prepared with Trizol (Invitrogen, Carlsbad, Calif.) as described before (41). For reverse transcription, 2 μg of RNA were used in a […] with random primers and M-MLV reverse transcriptase (Invitrogen, Carlsbad, Calif.), following the manufacturer's protocol. To control for possible contamination from genomic DNA in subsequent PCR reactions, control reverse transcription reactions were carried out under identical conditions, only without reverse transcriptase. After reverse transcription, 5% of the product was used in each PCR reaction. For the experiments analyzing A3 adenosine receptor (A3AR) expression, 27 cycles were used in the PCR reactions. Specific primers were designed for human A3AR, which match to two separate exons, according to genomic sequences (from GenBank). Sequences for the sense and antisense A3AR primers are: 5′tccatcatgtccttgctg3′ (SEQ ID NO: 1) and 5′gcacatgacaaccaggg3′ (SEQ ID NO.: 2). In the experiments analyzing estrogen receptor a (ERα) mRNA, semi-quantitative PCR reactions were carried out with 23 cycles for ERα primers and 19 cycles for GAPDH primers (used as a control). The cycle numbers were tested in previous experiments not to produce saturation effects. […]

Experiment [10] deals with ERα protein in ZR-75 cells. The experiment is described as follows: ERα protein level in ZR-75 cells. Type of experiment: cell-based, human. To be noted: not shown. The method, then: Western Blot Analysis: Cells were washed three times in cold 1×PBS, and collected by scraping on ice. Western blot analysis was performed as we described before with the chemiluminescence method (41). Antibodies used in this study were: ERα (NeoMarkers, Ab-15), Cyclin A (Santa Cruz Biotech, H-432), Cyclin B1 (Santa Cruz Biotech, H-433), Cyclin E (Upstate Biotech, HE-12), p27 (Santa Cruz Biotech, F-8). ERα antibody was used at 1:100 dilutions. Cyclin A, cyclin B1 and p27 antibodies were used at 1:500 dilutions. Cyclin E antibody was used at 1:1000 dilutions.

As for `CNC(=O)[C@H]1O[C@@H](n2cnc3c(NCc4cccc(I)c4)ncnc32)[C@H](O)[C@@H]1O` [IB-MECA, N^6-(3-iodobenzyl)adenosine-5′-N-methyluronamide], the “Cell counts after treatment compared to day 0, in words” value in experiment [1] (100 μM, three days, trypan blue negative cells) is “decreased only mildly; also recorded: did not show much change in the number of viable cells”; in [7], “affected more severely”. In addition, the “Cell Growth” value in experiment [1] (2 days of treatment, compounds at 100 μM, except adenosine (500 μM) and inosine (1 mM), normalized to vehicle control (set to 1), negative = decrease vs count before treatment, average ± SD, three experiments) is −0.19 ± 0.06. For the same compound, the “Colony formation, in words” value in experiment [2] is “mild response”; in [3], “dramatic decrease in colony formation”; in experiment [5] it was “dramatic decrease in colony formation”; in experiment [6], “dramatic decrease in colony formation”. Moreover, the “Concentration at which the cell growth inhibitory effect is observed” value in experiment [4] (MCF-7) is reported as “higher than 10 μM”. Moreover, the “Effect on anchorage-independent growth (colony formation), in words” value in experiment [4] (MCF-7 soft agar, different concentrations, two weeks) is “dose-dependent inhibition”. Further, in experiment [8], the “Dosage response of colony formation compared to normal MCF-7 cells” value is reported as “almost identical dosage response”. Moreover, the “pS2 mRNA level” value in experiment [9] was “reduced”. For the same compound, in experiment [10], the “ERα protein levels, in words” value was “Reduction of ERα protein levels”.
